The experiment concerns the target T1, canine TRPM8 (Canis lupus familiaris, UniProt Q1A7N1).
T1 construct: expressed in transfected cells
Description: In Vitro Canine TRPM8 Functional Assay (intracellular Ca2+ fluorescence, icilin activation, HEK293 cells). The format is cell-based. The conditions noted are these: for IC50: HEK293 cells expressing canine TRPM8, icilin activation, individually measured values (batches/salt forms), read-out: IC50 (nM), in vitro TRP M8 Activity; for % Inh (%) @0.2 μM, in vitro TRP M8 Activity: 0.2 μM test compound; for % Inh (%) @0.2 μM, in vitro TRP M8 Activity / inhibition at 0.2 µM: individually measured values. A digest of the protocol:
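HEK293 cells expressing canine TRPM8 loaded with Calcium 3 dye, then stimulated with icilin; intracellular Ca2+ rise read on FLIPR or FDSS. Peak fluorescence minus basal normalized to percent maximal response; IC50 from sigmoidal nonlinear regression of quadruplicate wells.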

Where [1] appears, read: HEK293, 0.2 μM test compound, read-out: % Inh (%) @0.2 μM, in vitro TRP M8 Activity.
Setting [2] is: HEK293, read-out: % Inh (%) @0.2 μM, in vitro TRP M8 Activity, 0.2 μM test compound.

A word on the IC50: it is the point on the concentration scale where inhibition reaches its midpoint.

Values joined by “and” are separate entries in the source; they are usually repeats but may differ in a detail not shown here. Identical values can stand only once. Counter-ions that a name gives are not always drawn. Like-named read-outs stand apart in the source and are kept apart here.

T1 sequence (Q1A7N1 1-1104): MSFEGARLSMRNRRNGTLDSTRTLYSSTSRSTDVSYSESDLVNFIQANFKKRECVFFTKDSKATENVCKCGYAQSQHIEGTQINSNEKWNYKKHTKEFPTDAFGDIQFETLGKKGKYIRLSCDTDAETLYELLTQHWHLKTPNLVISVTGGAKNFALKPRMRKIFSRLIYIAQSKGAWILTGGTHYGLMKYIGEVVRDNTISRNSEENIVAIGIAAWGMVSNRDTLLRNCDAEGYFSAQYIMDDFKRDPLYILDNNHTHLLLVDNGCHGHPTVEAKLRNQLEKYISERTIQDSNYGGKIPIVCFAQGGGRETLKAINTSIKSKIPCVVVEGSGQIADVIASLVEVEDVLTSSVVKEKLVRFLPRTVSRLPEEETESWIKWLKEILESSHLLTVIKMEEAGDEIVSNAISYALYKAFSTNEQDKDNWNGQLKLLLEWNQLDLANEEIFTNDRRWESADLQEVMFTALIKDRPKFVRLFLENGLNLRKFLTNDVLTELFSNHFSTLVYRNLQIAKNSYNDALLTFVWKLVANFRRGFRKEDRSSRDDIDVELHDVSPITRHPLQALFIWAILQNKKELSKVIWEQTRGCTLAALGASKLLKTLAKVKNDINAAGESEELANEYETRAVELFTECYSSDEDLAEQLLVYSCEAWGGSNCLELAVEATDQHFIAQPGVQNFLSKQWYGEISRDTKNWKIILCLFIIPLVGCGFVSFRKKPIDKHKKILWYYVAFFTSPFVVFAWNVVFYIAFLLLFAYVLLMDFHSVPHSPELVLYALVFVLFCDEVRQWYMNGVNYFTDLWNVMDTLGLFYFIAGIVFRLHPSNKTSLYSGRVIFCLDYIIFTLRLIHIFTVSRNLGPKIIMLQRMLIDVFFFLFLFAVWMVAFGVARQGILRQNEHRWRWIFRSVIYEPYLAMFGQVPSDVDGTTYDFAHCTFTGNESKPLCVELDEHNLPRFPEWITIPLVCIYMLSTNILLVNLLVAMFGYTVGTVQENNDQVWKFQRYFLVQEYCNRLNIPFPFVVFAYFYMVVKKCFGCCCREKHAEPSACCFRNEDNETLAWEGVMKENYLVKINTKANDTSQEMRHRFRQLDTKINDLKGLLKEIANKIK

Consider `Cn1nc(C(C)(C)C)c(Cl)c1-c1nc2cc(-c3ccccc3OC(F)(F)F)ccc2[nH]1` [Compound 51, 2-(5-tert-Butyl-4-chloro-2-methyl-2H-pyrazol-3-yl)-5-(2-trifluoromethoxyphenyl)-1H-benzimidazole sodium salt], for which the half-maximal inhibitory concentration (IC50) worked out at 27 nM.
`Cl.Cn1nc(C(C)(C)C)c(Cl)c1-c1nc2cc(-c3ccccc3F)cc(Cl)c2[nH]1` [Compound 114, 2-(5-tert-Butyl-4-chloro-2-methyl-2H-pyrazol-3-yl)-7-chloro-5-(2-fluoro-phenyl)-1H-benzimidazole sodium salt]: the half-maximal inhibitory concentration (IC50) was 4.7 nM and 10.3 nM and 10.2 nM. Further, the “% Inh (%) @0.2 μM, in vitro TRP M8 Activity” value (“% Inh (%) @0.2 μM” below) (sodium salt, 0.2 µM) came to 100%. Under setting [1], the inhibition at 0.2 µM was found to be 99%.
As for `CCCc1cc(-c2nc3ccc(-c4ccccc4OC(F)(F)F)cc3[nH]2)on1` [Compound 19, 2-(3-Propylisoxazol-5-yl)-6-(2-trifluoromethoxyphenyl)-1H-benzimidazole hydrochloride], the half-maximal inhibitory concentration (IC50) stood at 18 nM.
Consider `Cc1c(C(C)(C)C)nn(C)c1-c1nc2cc(-c3c(F)cccc3F)cc(C(F)(F)F)c2[nH]1` [Compound 122, 2-(5-tert-Butyl-2,4-dimethyl-2H-pyrazol-3-yl)-5-(2,6-difluoro-phenyl)-7-trifluoromethyl-1H-benzimidazole hydrochloride], for which the IC50 is 5.5 nM.
Consider `Cc1oc(C(C)(C)C)nc1-c1nc2cc(-c3ccccc3C(F)(F)F)cc(C(F)(F)F)c2[nH]1` [Compound 153, 2-(2-tert-Butyl-5-methyl-oxazol-4-yl)-7-trifluoromethyl-5-(2-trifluoromethyl-phenyl)-1H-benzimidazole hydrochloride], for which the inhibition at 0.2 µM under setting [1] is 25%.
For the molecule `Cn1nc(C(C)(C)C)c(C(F)(F)F)c1-c1nc2cc(-c3ccccc3C(F)(F)F)cc(C(F)(F)F)c2[nH]1` [Compound 187, 2-(5-tert-Butyl-2-methyl-4-trifluoromethyl-2H-pyrazol-3-yl)-7-trifluoromethyl-5-(2-trifluoromethyl-phenyl)-1H-benzimidazole sodium salt], the IC50 worked out at 14.7 nM. The inhibition at 0.2 µM under setting [1] amounted to 100%.
`Cc1ccccc1-c1ccc2[nH]c(-c3cc(C(C)(C)C)no3)nc2c1` [Compound 65, 2-(3-tert-Butyl-isoxazol-5-yl)-5-o-tolyl-1H-benzimidazole trifluoroacetic acid salt]: the IC50 is 15.5 nM.
On to `Cc1oc(C(C)(C)C)nc1-c1nc2cc(-c3ccccc3OC(F)(F)F)cc(Cl)c2[nH]1` [Compound 159, 2-(2-tert-Butyl-5-methyl-oxazol-4-yl)-7-chloro-5-(2-trifluoromethoxy-phenyl)-1H-benzimidazole hydrochloride], for which the inhibition at 0.2 µM under setting [1] amounted to 19%.
As to `Cn1nc(C(C)(C)C)c(Cl)c1-c1nc2cc(-c3c(F)cccc3F)cc(C(F)(F)F)c2[nH]1` [Compound 124, 2-(5-tert-Butyl-4-chloro-2-methyl-2H-pyrazol-3-yl)-5-(2,6-difluoro-phenyl)-7-trifluoromethyl-1H-benzimidazole hydrochloride], the 50% inhibitory concentration (IC50) was 7.3 nM and 4.4 nM. For the same molecule, the inhibition at 0.2 µM under setting [1] was found to be 99%.
Take `CC(C)(C)c1nnc(-c2nc3cc(-c4ccccc4C(F)(F)F)cc(C(F)(F)F)c3[nH]2)o1` [Compound 190, 2-(5-tert-Butyl-[1,3,4]oxadiazol-2-yl)-7-trifluoromethyl-5-(2-trifluoromethyl-phenyl)-1H-benzimidazole sodium salt]: the half-inhibitory concentration (IC50) amounted to 30 nM.
As to `Cn1nc(C(C)(C)C)c(Cl)c1-c1nc2cc(-c3ccccc3C(F)(F)F)cc(C(F)(F)F)c2[nH]1` [Compound 129, 2-(5-tert-Butyl-4-chloro-2-methyl-2H-pyrazol-3-yl)-7-trifluoromethyl-5-(2-trifluoromethyl-phenyl)-1H-benzimidazole hydrochloride], the IC50 is 6.2 nM and 4.1 nM. Moreover, the inhibition at 0.2 µM under setting [1] came out at 99%.
On to `Cn1nc(C(C)(C)C)cc1-c1nc2cc(-c3ccccc3Cl)ccc2[nH]1` [Compound 59, 2-(5-tert-Butyl-2-methyl-2H-pyrazol-3-yl)-5-(2-chloro-phenyl)-1H-benzimidazole trifluoroacetic acid salt], for which the IC50 stood at 8.3 nM.
Same read-out and setting: the value for `FC(F)(F)Oc1ccccc1-c1ccc2[nH]c(-c3cc(Br)no3)nc2c1` [Compound 43, 2-(3-Bromoisoxazol-5-yl)-5-(2-trifluoromethoxyphenyl)-1H-benzimidazole sodium salt] was 94.6 nM.
On the same count and under the same terms, with `FC(F)(F)c1ccccc1-c1ccc2[nH]c(-c3cc(Cl)no3)nc2c1` [Compound 33, 2-(3-Chloroisoxazol-5-yl)-5-(2-trifluoromethylphenyl)-1H-benzimidazole sodium salt] the figure was 145 nM.
Consider `Cn1nc(C(C)(C)C)c(C#N)c1-c1nc2cc(-c3ccccc3OC(F)(F)F)cc(C(F)(F)F)c2[nH]1.[Na]` [Compound 150, 3-tert-Butyl-1-methyl-5-[5-(2-trifluoromethoxy-phenyl)-7-trifluoromethyl-1H-benzimidazol-2-yl]-1H-pyrazole-4-carbonitrile sodium salt], for which the “% Inh (%) @0.2 μM” value was 100, 100%; the IC50 is 5.7 nM and 7.2 nM and 8.3 nM. In addition, under setting [2], the inhibition at 0.2 µM worked out at 100%.
Turning to `Cn1nc(C(C)(C)C)c(C#N)c1-c1nc2cc(-c3ccccc3C(F)(F)F)cc(C(F)(F)F)c2[nH]1.[Na]` [Compound 149, 3-tert-Butyl-1-methyl-5-[7-trifluoromethyl-5-(2-trifluoromethyl-phenyl)-1H-benzimidazol-2-yl]-1H-pyrazole-4-carbonitrile sodium salt], the half-maximal inhibitory concentration (IC50) was 3.8 nM and 5.1 nM and 3.2 nM. Moreover, where the note is “sodium salt, 0.2 µM”, the “% Inh (%) @0.2 μM” value was 99%. Also, under setting [2], the inhibition at 0.2 µM came out at 100%.
Take `CC(C)(C)c1cc(-c2nc3cc(-c4ccccc4C(F)(F)F)ccc3[nH]2)n(CCO)n1` [Compound 102, 2-{3-tert-Butyl-5-[5-(2-trifluoromethylphenyl)-1H-benzimidazol-2-yl]-pyrazol-1-yl}-ethanol hydrochloride]: the IC50 was found to be 54.4 nM.
In the case of `FC(F)(F)c1ccccc1-c1ccc2nc(-c3cc(C4CCCCC4)no3)[nH]c2c1` [Compound 24, 2-(3-Cyclohexylisoxazol-5-yl)-6-(2-trifluoromethylphenyl)-1H-benzimidazole hydrochloride], under setting [1], the inhibition at 0.2 µM amounted to 63%.
As to `Cn1nc(C(C)(C)C)c(Cl)c1-c1nc2cc(-c3ccccc3F)cc(C(F)(F)F)c2[nH]1` [Compound 127, 2-(5-tert-Butyl-4-chloro-2-methyl-2H-pyrazol-3-yl)-5-(2-fluoro-phenyl)-7-trifluoromethyl-1H-benzimidazole hydrochloride], the IC50 is 11.5 nM and 6.3 nM. The inhibition at 0.2 µM under setting [1] stood at 99%.
For `CCC(CC)c1cc(-c2nc3ccc(-c4ccccc4OC(F)(F)F)cc3[nH]2)on1` [Compound 27, 2-[3-(1-Ethylpropyl)-isoxazol-5-yl]-6-(2-trifluoromethoxyphenyl)-1H-benzimidazole hydrochloride], the IC50 came out at 46 nM.
Still for that read-out and setting: the value for `Cc1c(C(C)(C)C)nn(C)c1-c1nc2cc(-c3c(F)cccc3C(F)(F)F)cc(C(F)(F)F)c2[nH]1` [Compound 119, 2-(5-tert-Butyl-2,4-dimethyl-2H-pyrazol-3-yl)-5-(2-fluoro-6-trifluoromethyl-phenyl)-7-trifluoromethyl-1H-benzimidazole hydrochloride] was 2 nM.
